Data: ChEMBL document CHEMBL3091293, “The synthesis and biodistribution of [(11)C]metformin as a PET probe to study hepatobiliary transport mediated by the multi-drug and toxin extrusion transporter 1 (MATE1) in vivo” (Bioorg Med Chem, 2013)
pKi: −log10 of the molar value.

Key:
[1] = biological target: T1, Solute carrier family 22 member 1 (Mus musculus, UniProt O08966); test: Inhibition of mouse Oct1 transfected in HEK293 cells assessed as uptake of [14C]-TEA preincubated for 15 mins by liquid scintillation counting analysis; assay type: cell-based
T1 sequence (O08966 whole entry): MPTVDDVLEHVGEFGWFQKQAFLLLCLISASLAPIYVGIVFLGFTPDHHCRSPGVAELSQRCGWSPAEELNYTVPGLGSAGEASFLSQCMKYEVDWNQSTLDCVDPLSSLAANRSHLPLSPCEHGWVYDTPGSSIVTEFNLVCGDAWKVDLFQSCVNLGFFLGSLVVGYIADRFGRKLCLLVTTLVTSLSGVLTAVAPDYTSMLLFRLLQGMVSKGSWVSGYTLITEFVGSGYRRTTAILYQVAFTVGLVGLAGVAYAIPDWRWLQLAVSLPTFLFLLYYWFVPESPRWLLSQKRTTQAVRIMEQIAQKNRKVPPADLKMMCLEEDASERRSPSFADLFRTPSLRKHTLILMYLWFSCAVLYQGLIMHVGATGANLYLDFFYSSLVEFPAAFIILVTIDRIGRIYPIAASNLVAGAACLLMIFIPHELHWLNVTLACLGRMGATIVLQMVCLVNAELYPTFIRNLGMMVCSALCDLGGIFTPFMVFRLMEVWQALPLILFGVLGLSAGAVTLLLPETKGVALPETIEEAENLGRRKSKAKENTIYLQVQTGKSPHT

[2] = tested on: Plasma; test: Unbound plasma concentration in ddY mouse at 5 mg/kg; assay type: ADME, organism-based; set-up: dose 5 mg/kg; conditions: in vivo
[3] = tested on: Plasma; test: Plasma concentration in ddY mouse at 5 mg/kg; assay type: ADME, organism-based; set-up: dose 5 mg/kg; conditions: in vivo
[4] = biological target: T2, Multidrug and toxin extrusion protein 1 (Mus musculus, UniProt Q8K0H1); test: Inhibition of mouse Mate1 transfected in HEK293 cells assessed as uptake of [14C]-TEA preincubated for 15 mins by liquid scintillation counting analysis; assay type: cell-based
T2 sequence (Q8K0H1 whole entry): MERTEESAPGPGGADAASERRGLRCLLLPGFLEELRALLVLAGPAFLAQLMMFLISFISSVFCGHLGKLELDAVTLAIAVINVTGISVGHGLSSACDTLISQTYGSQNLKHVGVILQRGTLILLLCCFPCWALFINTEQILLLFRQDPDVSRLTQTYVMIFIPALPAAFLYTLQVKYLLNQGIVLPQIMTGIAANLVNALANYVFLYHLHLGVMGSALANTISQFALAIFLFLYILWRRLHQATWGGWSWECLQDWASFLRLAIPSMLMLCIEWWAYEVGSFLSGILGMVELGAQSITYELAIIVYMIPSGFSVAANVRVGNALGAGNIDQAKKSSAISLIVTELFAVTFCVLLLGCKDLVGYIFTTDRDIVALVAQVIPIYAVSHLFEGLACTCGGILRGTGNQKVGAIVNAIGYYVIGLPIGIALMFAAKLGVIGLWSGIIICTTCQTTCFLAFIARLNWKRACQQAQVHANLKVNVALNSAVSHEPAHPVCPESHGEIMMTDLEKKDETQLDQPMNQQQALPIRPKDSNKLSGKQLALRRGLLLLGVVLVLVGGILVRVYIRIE

For `CCc1nc(N)nc(N)c1-c1ccc(Cl)cc1` [PYRIMETHAMINE], the pKi [1] was 5.44, the “Cp(f)” value [2] was 0.3 µM and the concentration [3] was 3.7 µM. For the same compound, the pKi [4] was 6.84.
